Laboratory results published in ChEMBL document CHEMBL5608244, “Preclinical Evaluation of Dihydropyrazole-Cored Positron Emission Tomography (PET) Ligands for Imaging of Receptor-Interacting Serine/Threonine Protein Kinase 1 (RIPK1) in the Brain” (J Med Chem, 2024).

Key:
[1] = Retention time of the compound by HPLC method; type: physicochemical
[2] = Stability in saline measured for 60 to 150 mins by reversed-phase HPLC analysis; type: physicochemical; conditions: buffer; time 60-150 min
[3] = Lipophilicity, logD of compound at pH 7.4 by shake flask method; type: physicochemical; conditions: buffer
[4] = Drug uptake in Sprague-Dawley rat brain at 10 to 17.6 MBq, iv pretreated with 1-(5-(3-fluorophenyl)-4,5-dihydro-1H-pyrazol-1-yl)-2,2-dimethylpropan-1-one followed by compound administration measured upto 30 mins by PET analysis; type: ADME, organism-based; conditions: in vivo, 0.5 h, dose 10-17.6 MBq
[5] = Drug uptake in Sprague-Dawley rat brain at 10 to 17.6 MBq, iv treated for about 1 min by PET analysis; type: ADME, organism-based; conditions: in vivo, dose 10-17.6 MBq
[6] = Drug uptake in Sprague-Dawley rat bone at 10 to 17.6 MBq, iv treated upto 30 mins by PET analysis; type: ADME, organism-based, Bone element; conditions: in vivo, 0.5 h, dose 10-17.6 MBq
[7] = Stability in Balb/c mouse plasma measured for 60 to 150 mins by reversed-phase HPLC analysis; type: ADME; conditions: time 60-150 min

Retention_time [1] | Stability [2] | logD [3] | Drug uptake [4] | SUVmax [5] | Drug uptake [6] | Stability [7] | Compound
21.74 min | – | – | – | – | – | – | CC(C)(C)C(=O)N1N=CCC1c1cccc(F)c1 (stereo not given)
21.81 min | – | 2.98 | Active | 1.4 | Not Active | – | Cc1ccc(C2CC=NN2C(=O)C(C)(C)C)cc1[18F] (stereo not given)

More lines, now with the values behind:

Compound | Retention_time [1] | Stability [2] | logD [3] | Drug uptake [4] | SUVmax [5] | Drug uptake [6] | Stability [7]
Cc1ccc(C2CC=NN2C(=O)C(C)(C)C)cc1F (stereo not given) | 21.7 min | – | – | – | – | – | –
CC(C)(C)C(=O)N1N=CCC1c1cc(F)cc([18F])c1 (stereo not given) | 13.76 min | > 99% | 2.58 | Active | 1.8 | Not Active | > 97%
CC(C)(C)C(=O)N1N=CCC1c1cc(F)cc(F)c1 (stereo not given) | 13.66 min | – | – | – | – | – | –
